Data reported in publication PMC6368403, “Identification of a bilirubin receptor that may mediate a component of cholestatic itch” (eLife, 2019).
Values joined by “and” are separate entries in the source; they are usually repeats but may differ in a detail not shown here. Equal values may be shown once.

Experiments:
[1] = system: Mrgpr-cluster KO DRG neurons; assay: Ca2+ imaging of Mrgpr-cluster KO DRG neurons infected with lentivirus encoding Mrgpra1, MRGPRX4 or MRGPRX3; format: cell-based, mouse; conditions: 50 µM bilirubin (Fig 3J)
Procedure: DRGs were incubated with Fluo-4 AM 24 hr after dissociation (native genotype) or 48 hr after dissociation (virally transduced). Unless otherwise noted, cells were imaged for 20 seconds to establish a baseline before compounds were added. After 30 s, a 2 min wash was applied before addition of another substances. At the end of every imaging trial, 50 mM KCl was added as a positive control. […] For ruthenium red inhibitor experiments, neurons were incubated with 10 µM ruthenium red for 5 min prior to imaging. Percentage activated was determined as earlier described.
(§1) DRG neurons from all spinal levels were collected in cold DH10 media (90% Dulbecco’s modified Eagle’s medium (DMEM)/F-12, 10% FBS, penicillin (100 U/mL), and streptomycin (100 μg/mL)). DRGs were digested with a dispase (5 mg/ml)/collagenase type I (1 mg/ml) enzyme mixture at 37°C for 45 min. After trituration, cells were spun at 300 g and re-suspended in DH10 before being plated on glass coverslips coated with poly-D-lysine (0.5 mg/ml) and laminin (10 μg/ml, Invitrogen). DRGs were cultured with DH10 supplemented with 50 ng/mL NGF at 37°C.
Lentiviruses encoding various cDNA for MRGPRs were generated using psPAX2 and pMD2.G. Virus was pelleted by centrifugation at 100,000 g for 4 hr, gently washed with twice with DH10 medium, and suspended in DH10. One day after DRG isolation and culture, DRGs were infected with lentivirus […]. The following morning, medium was completely replaced with fresh DH10 supplemented with 50 ng/mL NGF. 24 hr after infection, cells were processed for calcium imaging.

[2] = system: small-diameter DRG sensory neurons; assay: Whole-cell current-clamp recording of DRG neurons; format: cell-based, mouse; conditions: 50 µM bilirubin
Procedure: as §1
DRG neurons from 3 to 5 week old mice were collected as described. After culture for 1–3 days, DRG neurons were transferred into a chamber with extracellular solution containing (in mM) 144 NaCl, 2.5 KCl, 2 CaCl2, 0.5 MgCl2, 5 HEPES, and 10 glucose, adjusted to pH 7.4 with NaOH. Whole-cell current-clamp recordings were performed at ~23°C using borosilicate capillary glass electrodes (Sutter Instrument) with a tip resistance of 3–5 MΩ. Internal solution contained (in mM) 80 K-acetate, 30 KCl, 40 HEPES, and 1 CaCl2, adjusted to pH 7.4 with potassium hydroxide (KOH). Small-diameter neurons with diameter 15–25 μm were chosen for patch-clamp. Data were acquired using an […] Amplifier and Digidata 1322A Digitizer with pClamp9.2 software package (Axon Instrument). […] Solutions containing 50 mM KCl were applied at the end of each cellular recording. Only neurons that could fire action potentials after adding KCl were regarded as healthy and appropriate for inclusion in data analysis.

[3] = molecular target: T1, MRGPRA1 (Mus musculus, UniProt Q91WW5); assay: Microscale thermophoresis binding to MRGPRA1; set-up: Transformed binding isotherm (mean of three experiments): unit not given here; conditions: for Transformed binding isotherm (mean of three experiments): MRGPRA1 (Fig 2E); for Binding to MRGPRA1: microscale thermophoresis
T1 construct: expressed in transfected cells
T1 sequence (Q91WW5 1-304): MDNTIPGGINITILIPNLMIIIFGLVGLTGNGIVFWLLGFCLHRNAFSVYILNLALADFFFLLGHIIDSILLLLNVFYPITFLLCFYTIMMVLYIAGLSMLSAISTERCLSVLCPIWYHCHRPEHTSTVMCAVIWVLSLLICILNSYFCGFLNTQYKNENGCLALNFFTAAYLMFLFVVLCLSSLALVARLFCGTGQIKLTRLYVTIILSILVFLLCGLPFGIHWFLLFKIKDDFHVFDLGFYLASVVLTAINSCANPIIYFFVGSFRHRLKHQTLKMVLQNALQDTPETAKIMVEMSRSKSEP
Procedure: Binding isotherms for MRGPRA1, MRGPRX4, and MRGRPC11 towards various ligands were determined by microscale thermophoresis with the NanoTemper monolith NT.115 instrument ([Duhr and Braun, 2006]). Ligands were pre-incubated with 10 µM of the GFP-tagged receptor of interest for 5 min at room temperature in binding buffer (20 mM Tris and 150 mM NaCl at pH 8.8). Receptors were crudely purified as a membrane fraction from cells stably expressing the receptor ([Vasavda et al., 2017]). Haem metabolites were freshly dissolved in 0.1 M NaOH in dim light and then diluted into assay buffer. Lyophilized BAM8-22 was dissolved in binding buffer. The pH of each ligand was evaluated prior to incubation with a receptor. Samples were loaded into NT.115 Hydrophobic-Treated Capillaries from NanoTemper. Microscale thermophoretic experiments were executed using 20% LED power and 15% MST power. KDs were calculated using the law of mass action with data from three independent experiments. Binding between bilirubin and receptors was evaluated purely thermophoretically, whereas binding between BAM8-22 and MRGPRC11 was evaluated by T-Jump. Samples with dramatic deviations in initial fluorescence were excluded.

[4] = system: mice; assay: Scratching bouts after subcutaneous injection into the nape of the neck / back; format: in vivo, mouse; conditions: for Scratching bouts binned according to 5 min intervals (time course of itch behavior): one column per mouse, values of a mouse sum to 1 (Fig 1B)
Procedure: All applicable behavioral tests were performed and analysed with the experimenter blind to genotype. […] On the day before the experiment, animals were placed in the test chamber for 30 min before being subjected to a series of three mock injections with 5 min break periods in between. On the day of the experiment, animals were first allowed to acclimatize to the test chamber for 10 min before injection. […] A bout of scratching was defined as a continuous scratching movement with either hindpaw directed at the area of the injection site. In the cheek injection model, a wipe was defined as a single forepaw stroking the site of the injection. Use of both forepaws on the face or cheek was considered as grooming behavior. […] For H1R block, 30 mg/kg of cetirizine HCl (pH 7.4) was given intraperitoneally thirty minutes prior to injection of bilirubin. Licking behavior was quantified in seconds and identified as the licking of the toes or footpad of the hind paw site of injection that was neither preceded nor followed by licking of any other portion of the body.

| Transformed binding isotherm (mean of three experiments) ([3]; [Ligand] 3.05e-8 M) | Transformed binding isotherm (mean of three experiments) ([3]; [Ligand] 6.1e-8 M) | Transformed binding isotherm (mean of three experiments) ([3]; [Ligand] 1.221e-7 M) | Transformed binding isotherm (mean of three experiments) ([3]; [Ligand] 2.441e-7 M) | Transformed binding isotherm (mean of three experiments) ([3]; [Ligand] 4.883e-7 M) | Transformed binding isotherm (mean of three experiments) ([3]; [Ligand] 9.766e-7 M) | Transformed binding isotherm (mean of three experiments) ([3]; [Ligand] 1.9531e-6 M) | Transformed binding isotherm (mean of three experiments) ([3]; [Ligand] 7.8125e-6 M) | Transformed binding isotherm (mean of three experiments) ([3]; [Ligand] 1.5625e-5 M) | Transformed binding isotherm (mean of three experiments) ([3]; [Ligand] 3.125e-5 M) | Transformed binding isotherm (mean of three experiments) ([3]; [Ligand] 6.25e-5 M) | Transformed binding isotherm (mean of three experiments) ([3]; [Ligand] 0.000125 M) | Transformed binding isotherm (mean of three experiments) ([3]; [Ligand] 0.00025 M) | Transformed binding isotherm (mean of three experiments) ([3]; [Ligand] 0.0005 M) | Transformed binding isotherm (mean of three experiments) ([3]; [Ligand] 0.001 M) | Transformed binding isotherm (mean of three experiments) ([3]; [Ligand] 3.9063e-6 M) | Compound | Binding to MRGPRA1 [3] | further results |
| --- | --- | --- | --- | --- | --- | --- | --- | --- | --- | --- | --- | --- | --- | --- | --- | --- | --- | --- |
| 6.015 | 5.1124 | 3.41 | 3.271 | -3.226 | -3.391 | 7.109 | 1.334 | 2.3419 | 16.9295 | 43.5974 | 64.6366 | 80.7081 | 102.789 | 103.048 | – | C=CC1=C(C)/C(=C/c2[nH]c(Cc3[nH]c(/C=C4\NC(=O)C(C)=C4C=C)c(C)c3CCC(=O)O)c(CCC(=O)O)c2C)NC1=O [bilirubin, bilirubin IXα] | – | Percent activated neurons ([1]; MRGPRX4-infected Mrgpr-cluster KO DRG): 32%; Percent activated neurons ([1]; Mrgpra1-infected Mrgpr-cluster KO DRG): 14%; Percent activated neurons ([1]; uninfected Mrgpr-cluster KO DRG): 1.3%; Small-diameter neurons in which action potentials were elicited ([2]; A1 KO DRG): 0 out of 60; Small-diameter neurons in which action potentials were elicited ([2]; A1 KO DRG, listed as Bilirubin): 0 of 60; Small-diameter neurons in which action potentials were elicited ([2]; WT DRG): 5 out of 50; Small-diameter neurons in which action potentials were elicited ([2]; WT DRG, listed as Bilirubin): 5 of 50; Scratching bouts ([4]; 60 μg bilirubin pre-incubated with 1% human serum albumin (+HSA), nape, WT mice (Fig 1A)): 7; Scratching of A1 KO animals versus WT mice ([4]; 60 µg injected): scratched significantly less than WT mice; Scratching of BVR KO mice ([4]; 150 µg chloroquine or 60 µg bilirubin, 30 min): scratched normally; Scratching bouts to chloroquine plus bilirubin ([4]; 1 mM chloroquine plus 500 µM bilirubin injected into back): Synergism of bilirubin with chloroquine pruritus; Less scratching of Mrgpr-cluster KO animals than wild type mice ([4]; bilirubin injection (Fig 1C)): approximately 75%; Scratching ([4]; bilirubin pre-incubated with excess human serum albumin): elicited fewer scratches; Scratching at the site of injection ([4]; pathophysiologic concentrations, s.c. into the nape): stimulated scratching in a dose-dependent manner; Scratching bouts binned according to 5 min intervals (time course of itch behavior) ([4]; time 5 min): 0 (10×) and 0.09677 and 0.08333 and 0.1304 and 0.2264 and 0.2353 and 0.07317; Scratching bouts binned according to 5 min intervals (time course of itch behavior) ([4]; time 10 min): 0.1786 and 0.5556 and 0.32 and 0.3226 and 0 (4×) and 0.1304 and 0.04 and 0.15 and 0.2642 and 0.1026 and 0.3529 and 0.2941 and 0.05128; Scratching bouts binned according to 5 min intervals (time course of itch behavior) ([4]; time 15 min): 0.25 and 0.4444 and 0.32 and 0.2258 and 0.1667 and 0.3913 and 0.66 and 0.1 and 0.1698 and 0.5116 and 0.2051 and 0.5 and 0.2941 and 0.2647 and 0.1951 and 0.2308; Scratching bouts binned according to 5 min intervals (time course of itch behavior) ([4]; time 20 min): 0.07143 and 0 (2×) and 0.16 and 0.06452 and 0.08333 and 0.3043 and 0.1 and 0.45 and 0.1509 and 0.4419 and 0.4872 and 0.1364 and 0.08824 and 0.2195 and 0.1026; Scratching bouts binned according to 5 min intervals (time course of itch behavior) ([4]; time 25 min): 0.07143 and 0 (3×) and 0.2 and 0.03226 and 0.3333 and 0.04348 and 0.06 and 0.15 and 0.04651 and 0.2727 and 0.1765 and 0.05882 and 0.3659 and 0.6154; Scratching bouts binned according to 5 min intervals (time course of itch behavior) ([4]; time 30 min): 0.4286 and 0 (5×) and 0.2581 and 0.3333 and 0.14 and 0.15 and 0.1887 and 0.2051 and 0.09091 and 0.1765 and 0.05882 and 0.1463 |
| – | – | 8.864 | 12.0246 | -13.1442 | 10.2399 | -8.006 | -9.562 | -5.789 | -4.24 | 37.7812 | 5.5559 | 6.134 | 25.273 | 43.2348 | -10.5584 | C=CC1=C(C)/C(=C/c2[nH]c(Cc3[nH]c(/C=C4\NC(=O)C(C)=C4C=C)c(C)c3CCC(=O)NCCS(=O)(=O)O)c(CCC(=O)NCCS(=O)(=O)O)c2C)NC1=O [conjugated bilirubin, bilirubin ditaurate] | lower affinity than unconjugated bilirubin | – |
| 0 | 0 | 0 | 0 | 0 | 0 | 0 | 0 | 0 | 0 | 0 | 0 | 0 | 0 | – | 0 | hemin | did not bind | Scratching behavior ([4]; metabolite injected into mice (Fig 1D)): did not induce scratching |
